Source: patent US20240279635A1, “BIOFILM ACTIVITY ADJUSTING METHOD” (NATIONAL INSTITUTE FOR MATERIALS SCIENCE, priority 2021, published 2024)

Test system: Klebsiella pneumoniae
Experiment: Electric current generation by Klebsiella pneumoniae with electron mediators in a three-electrode electrochemical cell (time-current curve, FIG. 4)
Type: cell-based
Settings: 100 μM electron mediator, 10 mM glucose, working electrode +0.2 V (vs. Ag/AgCl), 37° C., anaerobic condition, 15 hours, carbon electrodes
Method: The experiment was performed using a three-electrode electrochemical cell having carbon electrodes as the working electrode and counter electrode, and a silver/silver chloride electrode as the reference electrode.
First, as an electron source, a liquid culture medium (defined medium) containing 10 mM of glucose and 100 μM of electron mediator (see below) was added to the cell described above, to which Klebsiella pneumoniae (optical density (OD): 0.1) was inoculated, then an electric potential of the working electrode was set to +0.2 V (vs. Ag/AgCl) at 37° C., and the culture medium was incubated under anaerobic condition for 15 hours.
• HNQ: 2-hydroxy-1,4-naphthoquinone • 1-Phenazine: 1-hydroxyphenazine • AQDS: anthraquinone-1,5-disulfonate • AQS: anthraquinone-1-sulfonate • FMN: flavin mono nucleotide • RF: ribobflavin • W/O mediator: no electron mediator
FIG. 4 is a time-current curve.

Q: O=C1C=C(O)C(=O)c2ccccc21 [HNQ, 2-hydroxy-1,4-naphthoquinone] was tested. Which “generated electric current (time-current curve)” value did it give?
A: a large electric current could be generated
